US20090232735A1, “USE OF FRUCTOSE-BASED THERAPIES FOR THE TREATMENT OF CANCER” (CEDARS-SINAI MEDICAL CENTER, priority 2005, published 2009)
“Also recorded” adds a separate entry of the source.

Test system: PANC-1 pancreatic cancer cells
Assay: PANC-1 pancreatic cancer cell proliferation (MTS assay)
Assay type: cell-based, human
Conditions: oxythiamine 0.5 mM, 72 h, MTS
Protocol: FIG. 13 depicts higher proliferation rates in pancreatic cancer cells in fructose (5.5 mM) than glucose (5.5 mM) containing medium in accordance with an embodiment of the present invention. PANC-1 cells were pre-incubated in 2 mM glucose, after which they were plated in 5.5 mM fructose or glucose for times between 12-72 h, after which proliferative rates were measured using an MTS assay. Proliferative rates are expressed as the percentage difference between cells grown in 5.5 mM fructose versus 5.5 mM glucose. p<0.01 for times>48 h.
FIG. 14 depicts proliferation rates of pancreatic cells in different fructose or glucose concentrations in accordance with an embodiment of the present invention. PANC-1 cells were plated in a range of fructose or glucose concentrations (5-25 mM) for 72 h, after which proliferative rates were measured using an MTS assay. *, p<0.05 for concentrations between 5-25 mM fructose versus glucose.
FIG. 17 depicts cell proliferation regardless of co-existent glucose concentration in accordance with an embodiment of the present invention. PANC-1 cells were pre-incubated in 2 mM glucose prior to treatment with a range of concentrations (0-15 mM) mixed with a range of fructose concentrations (0-15 mM) for 72 h. PANC-1 cell proliferative rates were then measured using the MTS assay (absorbance in arbitrary units).
FIG. 35 depicts inhibition of pancreatic cancer PANC-1 cell proliferation by incubation with the transketolase inhibitor, oxythiamine (0.5-2 mM) for 72 h in accordance with an embodiment of the present invention. Proliferative rates were measured using the MTS proliferation assay.
Standard media for maintenance cancer cell line culture, including pancreatic cancer cells such as PANC-1 cells contain either low—(5-7 mM), or high—(12-25 mM) glucose concentrations. Clearly, apart from the setting of hyperglycemia, as in patients with diabetes, the glucose concentrations in which pancreatic cancer cells are maintained in vitro are much higher than normal physiological conditions, which range between 2-5 mM glucose. […] Therefore, the inventors first pre-treated the pancreatic cancer cells overnight in standard DMEM medium containing low physiological glucose concentrations (2 mM glucose), and standard 10% fetal bovine serum. The pancreatic cancer cells were then incubated for times between 12, and 96 hours in standard DMEM medium containing 10% fetal bovine serum, and 5.5 mM glucose or 5.5 mM fructose. Proliferative rates were then measured in replicate (minimum of 6) aliquot wells of the pancreatic cancer cells, and the change (expressed as percent increase) in proliferative rates compared between cells grown in glucose, or fructose containing medium.
This first result intrigued the inventors, but given there is little documentation regarding physiological fructose concentrations, the inventors first considered that the “apparent” pro-proliferative effects of fructose were simply a consequence of the highly stylized in vitro experimental conditions, and that if the pancreatic cancer cells were cultured in higher glucose concentrations, this would result in similar proliferative rates to those the inventors observed following culture in 5.5 mM fructose. Therefore, in the next experiments, the inventors compared proliferative rates of the PANC-1 pancreatic cancer cells following culture for 72 h in a range of fructose, and glucose concentrations (2-25 mM). This timepoint was chosen as the inventors had seen maximal pancreatic cancer cell proliferation in 5.5 mM fructose at 72 h. […] While not wishing to be bound by any particular theory, the inventors believe that this latter finding may be because the PANC-1 cells are proliferating at close to maximal capacity by 72 h, once they are exposed to comparatively low fructose concentrations (5 mM). MTS assay was employed to measure pancreatic cancer cell proliferative rates, which utilizes mitochondrial oxidation to quantify cell proliferation. […]

Compound: Cc1ncc(C[n+]2csc(CCO)c2C)c(=O)[nH]1 [oxythiamine, reference compound]
- fructose-mediated increase in pancreatic cancer cell proliferation (5.5 mM fructose): virtually abolished; also recorded: almost completely abrogate
- glucose-induced and fructose-induced PANC-1 proliferation: inhibited
